Earlier results on four substances are cited in patent US5750504A, “Antimicrobial proteins” (Zeneca Agrochemicals, priority 1996, dated 1998).

Where no end group is shown, it is not given here.

One series relates to fungi. The following applies: Rs-AFP-type proteins of WO93/05153; cited from earlier work.
The subject of series [1] is hyphae of Fusarium culmorum. The following applies: Terras FRG et al, 1992; cited from earlier work.

On to “Cb-AMP1: antimicrobial protein capable of isolation from Cnicus benedictus, SEQ ID NO 6 (ELCEKASKTWSGNCGNTKHCDDQCKSWEGAAHGACHVRNGKHMCFCYFNC; ends and bridges not checked; cysteine pairing not given here)”, for which, in the series with fungi, the hyperbranching of fungi entry is “do not”.
Consider “Dm-AMP1: antimicrobial protein capable of isolation from Dahlia merckii, SEQ ID NO 5 (ELCEKASKTWSGNCGNTGHCDNQCKSWEGAAHGACHVRNGKHMCFCYFNC; ends and bridges not checked; cysteine pairing not given here)”, for which the hyperbranching of fungi result in the series on fungi is on record as “do not”.
“Rs-AFP2: antifungal protein from Raphanus sativus seeds, SEQ ID NO 4 (ZKLCQRPSGTWSGVCGNNNACKNQCIRLEKARHGSCNYVFPAHKCICYFPC)”: the “hyper-branching of hyphae of Fusarium culmorum” value in series [1] is reported as “A similar effect”. Also, the hyperbranching of fungi entry in the series with fungi was “cause hyperbranching”.
With “Rs-AFP1: antifungal protein from Raphanus sativus seeds, SEQ ID NO 3 (ZKLCERPSGTWSGVCGNNNACKNQCINLEKARHGSCNYVFPAHKCICYFPC)”, in series [1], the “hyper-branching of hyphae of Fusarium culmorum” value is reported as “A similar effect”. Further, the hyperbranching of fungi entry in the series on fungi is given as “cause hyperbranching”.
